Results reported in paper PMC10410440, “Preclinical PK investigation of a novel IDO1/TDO dual inhibitor—SHR9146 in mouse plasma and tissues by LC-MS/MS” (Frontiers in Oncology, 2023).
Where “and” joins values, the source holds several entries; their conditions need not be identical. Equal entries are not always repeated. Entries after “also recorded” stand apart in the source; their conditions may differ. Where two headings read alike, the source gives them in different places.

Assay: Plasma pharmacokinetics of SHR9146 in mice (LC-MS/MS, non-compartmental analysis)
Assay type: in vivo, ICR mice
Details: for AUC(0-t): read-out: AUC0-t; for half-life: read-out: t1/2 (converted); for Cmax: read-out: Cmax; for Tmax: read-out: Tmax
Experimental: ICR mice with body weight 16–26 g were supplied by Shanghai Lingchang Biotechnology Co., Ltd. (animal breeding license number SCXK (Shanghai) 2013-0018) and housed at Shanghai Institute of Materia Medica, Chinese Academy of Sciences [animal use license number SYXK (Shanghai) 2015-0027]. The mice used in this study were fasted overnight for 12 h but had free access to water. Food was supplied 4 h post-dose. All experiments in this study were conducted in accordance with the Guidelines for the Care and Use of Laboratory Animals of Shanghai Institute of Materia Medica, Chinese Academy of Sciences.
A total of 30 mice were randomly assigned into five groups with equal numbers, males and females. One group was intravenously administrated with 5 mg/kg SHR9146 dissolved in […] plus 95% saline (adjusted pH to 4.0) under sterile conditions. The remaining four groups were administered respectively with a single dose of 20 , 40, or 80 mg/kg or multiple doses of 20 mg/kg twice daily for 7 days, by oral gavage of SHR9146 dissolved in 0.5% CMC-Na. Blood samples were obtained from the fossa orbitalis vein at 15 and 30 min and 1.0, 2.0, 4.0, 6.0, 8.0, 10.0, and 24.0 h after oral gavage administration. An additional 5-min time point was included for iv injection, as well as the pre-drug administration time points on the fifth, sixth, and seventh days in the multiple-dose group. The blood samples were collected in EDTA K2 anticoagulant blood collection tubes and centrifuged at 1,000 rpm for 5 min at 4°C. The supernatant plasma samples were thus produced.
Briefly as follows, an aliquot of 25-μL plasma or tissue homogenate was spiked with 100 μL of internal standard solution (1 μg/mL for plasma, 0.2 μg/mL for tissue homogenate) and 300 μL of methanol added and vortex mixed for 60 s. The mixture was then centrifuged at 14,000 rpm at 4°C for 5.0 min, and the supernatant was diluted with methanol–water (4:1, v/v) in a ratio of 1:9 for the plasma or 1:1 for the tissue homogenate, and 5 μL of the resulting solution was injected for the LC-MS/MS analysis.
The pharmacokinetic parameters of SHR9146 in mouse plasma were estimated by Phoenix 1.4 software using a non-compartmental model.
The mean concentration–time curves of SHR9146 in mouse plasma after a single oral gavage dose of 20, 40, or 80 mg/kg, or a single intravenous dose of 5 mg/kg, or the 7th-day steady state after twice-daily multiple oral doses of 20 mg/kg are shown in Figure 5 (Table S6).

[1] = female, ICR, mouse, plasma, iv, 5 mg/kg, 5 mg/kg i.v. single dose, female mice, plasma
[2] = female, ICR, mouse, plasma, po, 20 mg/kg, 20 mg/kg i.g. bid, 7 days (7th-day steady state), female mice, plasma
[3] = female, ICR, mouse, plasma, po, 20 mg/kg, 20 mg/kg i.g. single dose, female mice, plasma
[4] = female, ICR, mouse, plasma, po, 40 mg/kg, 40 mg/kg i.g. single dose, female mice, plasma
[5] = female, ICR, mouse, plasma, po, 80 mg/kg, 80 mg/kg i.g. single dose, female mice, plasma
[6] = male, ICR, mouse, plasma, iv, 5 mg/kg, 5 mg/kg i.v. single dose, male mice, plasma
[7] = male, ICR, mouse, plasma, po, 20 mg/kg, 20 mg/kg i.g. bid, 7 days (7th-day steady state), male mice, plasma
[8] = male, ICR, mouse, plasma, po, 20 mg/kg, 20 mg/kg i.g. single dose, male mice, plasma
[9] = male, ICR, mouse, plasma, po, 40 mg/kg, 40 mg/kg i.g. single dose, male mice, plasma
[10] = male, ICR, mouse, plasma, po, 80 mg/kg, 80 mg/kg i.g. single dose, male mice, plasma
[11] = single oral dosing 20 to 80 mg/kg pooled, mouse plasma, n=6

MRT inf (both sexes, ICR, mouse, po, 80 mg/kg i.g. single dose, all mice (Totol, 3 male + 3 female), plasma, read-out: MRT0-∞): 4.6 h | AUC(0-inf) (female, ICR, mouse, plasma, iv, 5 mg/kg, 5 mg/kg i.v. single dose, female mice): 6910 ng·h/mL | AUC(0-t) [1]: 6800 ng·h/mL | half-life [1]: 0.665 h | AUC(0-inf) (female, ICR, mouse, plasma, po, 20 mg/kg, 20 mg/kg i.g. bid, 7 days (7th-day steady state), female mice): 24300 ng·h/mL | AUC(0-t) [2]: 24200 ng·h/mL | Cmax [2]: 10900 ± 737 ng/mL | Tmax [2]: 0.833 ± 0.289 h | half-life [2]: 0.951 h | AUC(0-inf) (female, ICR, mouse, plasma, po, 20 mg/kg, 20 mg/kg i.g. single dose, female mice): 17900 ng·h/mL | AUC(0-t) [3]: 16800 ng·h/mL | Cmax [3]: 9170 ± 4240 ng/mL | Tmax [3]: 0.5 ± 0.433 h | half-life [3]: 0.866 h | AUC(0-t) [4]: 12400 ng·h/mL | Cmax [4]: 9880 ± 3490 ng/mL | Tmax [4]: 1.83 ± 1.89 h | AUC(0-inf) (female, ICR, mouse, plasma, po, 80 mg/kg, 80 mg/kg i.g. single dose, female mice): 65900 ng·h/mL | AUC(0-t) [5]: 64700 ng·h/mL | Cmax [5]: 18700 ± 7300 ng/mL | Tmax [5]: 1.17 ± 0.764 h | half-life [5]: 1.49 h | AUC(0-inf) (male, ICR, mouse, plasma, iv, 5 mg/kg, 5 mg/kg i.v. single dose, male mice): 6950 ng·h/mL | AUC(0-t) [6]: 6730 ng·h/mL | half-life [6]: 0.761 h | AUC(0-inf) (male, ICR, mouse, plasma, po, 20 mg/kg, 20 mg/kg i.g. bid, 7 days (7th-day steady state), male mice): 24400 ng·h/mL | AUC(0-t) [7]: 24300 ng·h/mL | Cmax [7]: 10500 ± 993 ng/mL | Tmax [7]: 0.833 ± 0.289 h | half-life [7]: 1.06 h | AUC(0-inf) (male, ICR, mouse, plasma, po, 20 mg/kg, 20 mg/kg i.g. single dose, male mice): 14600 ng·h/mL | AUC(0-t) [8]: 14400 ng·h/mL | Cmax [8]: 10000 ± 2370 ng/mL | Tmax [8]: 0.417 ± 0.144 h | half-life [8]: 0.531 h | AUC(0-inf) (male, ICR, mouse, plasma, po, 40 mg/kg, 40 mg/kg i.g. single dose, male mice): 33400 ng·h/mL | AUC(0-t) [9]: 31000 ng·h/mL | Cmax [9]: 15000 ± 3240 ng/mL | Tmax [9]: 1.33 ± 0.577 h | half-life [9]: 1.66 h | AUC(0-inf) (male, ICR, mouse, plasma, po, 80 mg/kg, 80 mg/kg i.g. single dose, male mice): 75900 ng·h/mL | AUC(0-t) [10]: 75300 ng·h/mL | Cmax [10]: 15500 ± 6150 ng/mL | Tmax [10]: 1.83 ± 1.89 h | half-life [10]: 3.3 h | Vd, post-oral (oral 20 to 80 mg/kg pooled, mouse plasma, n=6): 3.427 ± 1.617 L/kg | Vd, post-oral [11]: 3.43 ± 1.62 L/kg
Structure (SMILES): OCCn1cc(-c2ccc(N3CCC([C@H]4c5c(F)cccc5-c5cncn54)CC3)cc2)cn1 [SHR9146]
dose dependence of oral pharmacokinetics (oral 20 to 80 mg/kg, mice, Cmax and AUC): dose proportionality; also recorded: linear pharmacokinetics characteristics; also recorded: dose-independent kinetics | CL, post-oral [11]: 19.8 ± 0.9 mL/min/kg and 19.769 ± 0.866 mL/min/kg
